# Data taken from patent publication US7037533B2 (priority 2001, dated 2006).
# Read-outs that look alike come from different tables or passages of the source.
# How the values were obtained:
# [1] = inhibition of nitrosomorpholine generation from morpholine and NaNO2 in vitro; settings: 20 mg/ml
# Method: EGCG, quercetin, catechin, vitamin C and powdered green tea were used as a control group. Each specimen was used in a concentration of 2.5, 5, 10, 15, 20 mg/ml. 200 mM of sodium nitrate not containing morpholine was used as a negative control. The specimen not containing the nitrosating agent NaNO2 was used as a blank in each reaction.
# Each specimen was added into 15 ml of corning tubes according to concentration and marked with the blank, test, negative control. 1 ml of glacial acetic acid was added into each tube and 100 μl of 2 M NaNO2 was added into each tube except blank and distilled water was added to make total volume of 2 ml. After reacting for 10 minutes at 37° C., 176 μl of morpholine was added to make 2 M and the reaction was further carried out for 30 minutes at 37° C. The reaction was stopped by adding 3.8 ml of 5 N NaOH to set pH 10 to 12. According to DBA method, the specimens were measured and compared with blank group (not added NaNO2) and negative control group (not added morpholine and added 200 mM NaNO2).
# Generation rate of nitrosomorpholine (NMOR %) is measured as below calculating formula 1. NMOR %=[(t0−blank)−(t30−blank)]/(t0−blank) (Calculating formula 1) • Blank; a specimen not containing nitrosating agent NaNO2 • t0; a specimen containing 200 mM of NaNO2 without morpholine • t30; a specimen normally reacted in the generation of nitrosomorpholine.
# [2] = biological target: T1, purified CYP 1A2 (Homo sapiens, UniProt P05177); test: purified RECO System CYP 1A2 enzyme activity with methoxyresorufin
# T1 sequence (P05177 2-516 limits assumed): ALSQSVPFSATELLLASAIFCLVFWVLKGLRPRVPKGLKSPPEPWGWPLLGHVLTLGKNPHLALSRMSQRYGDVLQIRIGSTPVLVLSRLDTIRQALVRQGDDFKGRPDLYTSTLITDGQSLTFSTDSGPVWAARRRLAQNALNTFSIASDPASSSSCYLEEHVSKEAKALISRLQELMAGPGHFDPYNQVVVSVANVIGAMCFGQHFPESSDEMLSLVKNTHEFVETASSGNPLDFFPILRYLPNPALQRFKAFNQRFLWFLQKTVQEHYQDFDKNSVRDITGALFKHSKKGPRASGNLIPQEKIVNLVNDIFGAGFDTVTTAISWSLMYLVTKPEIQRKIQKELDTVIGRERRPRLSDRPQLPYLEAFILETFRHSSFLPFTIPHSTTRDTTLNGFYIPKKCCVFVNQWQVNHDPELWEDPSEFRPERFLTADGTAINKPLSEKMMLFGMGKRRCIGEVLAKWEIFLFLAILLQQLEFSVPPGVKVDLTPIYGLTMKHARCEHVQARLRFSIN
# Method: A composition of enzyme mixture comprises 0.5 uM CYP1A2, 0.2 μM NADPH P450 reductase, 0.5 μg/uL CHAPS, 0.1 μg/uL liposomes (dilauroyl phosphotidylcholine, dileoyl phosphotidylcholine, dilauroyl phosphotidylcholine (1:1:1)), 3 mM reductive glutathion, and 50 mM HEPES/KOH (pH 7.4). A buffer solution is 1 M potassium/sodium phosphate. 768 μl of tertiary distilled water, 126.7 μl of CYP 1A2 buffer solution, and 5.3 μl of 1 mM methoxyresorufin were added sequentially to make […] of solution and heated at 37° C. 5 μl of enzyme activation inhibiting material was added into 85 μl of buffer solution and substrate mixture to make final concentration 0.1, 0.5, 1.0, and 2.0 mg/ml respectively. The reaction started at 37° C. while adding 5 μl of CYP 1A2 enzyme mixture and 5 μl of 50 mM NADPH. The reaction was maintained for 20 minutes and stopped by adding 1 ml of methanol. The enzyme activity was measured by using a RF-5301 PC spectrofluoro photometer (SHIMADZU, Japan).
# [3] = biological target: T2, CYP 1A2 (Rattus norvegicus, UniProt P04799)
# T2 sequence (P04799 1-513): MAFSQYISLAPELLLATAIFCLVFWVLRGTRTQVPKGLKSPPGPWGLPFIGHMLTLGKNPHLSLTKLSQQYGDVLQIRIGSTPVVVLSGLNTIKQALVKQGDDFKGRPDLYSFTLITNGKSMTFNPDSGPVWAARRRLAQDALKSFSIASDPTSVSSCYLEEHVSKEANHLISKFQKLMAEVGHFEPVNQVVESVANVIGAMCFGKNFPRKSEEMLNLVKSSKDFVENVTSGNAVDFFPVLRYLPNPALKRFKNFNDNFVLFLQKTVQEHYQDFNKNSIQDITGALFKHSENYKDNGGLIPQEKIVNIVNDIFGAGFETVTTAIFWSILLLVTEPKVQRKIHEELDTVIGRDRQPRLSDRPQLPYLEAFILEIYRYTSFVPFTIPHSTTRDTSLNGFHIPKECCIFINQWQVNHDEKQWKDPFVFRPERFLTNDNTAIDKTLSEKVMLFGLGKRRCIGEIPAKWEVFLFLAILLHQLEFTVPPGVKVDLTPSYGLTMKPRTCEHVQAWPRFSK
# Method: (§1) The present test measured the inhibition effect of CYP relating to NNK activation to various test materials after inducing CYP of a liver from a rat(Sprague-Dawley rat) by Aroclor 1254(Sigma, USA) and taking out the liver.
# (§2) Aroclor 1254 was injected into the abdomen of a 7-week old male rat (Sprague-Dawley rat) in a capacity of 500 mg/kg. After 5 days, the liver was taken out in a sterile state and homogenized using 0.15M of KCl solution at 4° C. A supernatant was separated by a centrifugal separation for 10 minutes at 9000 g from the homogenate and used in the test. Activity of CYP was measured by using pentoxyresorufin(Sigma USA) which is a substrate of CYP 2B1/2/4, ethoxyresorufin(Sigma USA) which is a substrate of CYP 1A1 and methoxyresorufin(Sigma USA) which is a substrate of CYP 1A2. […] The inhibition effect for CYP activity was compared using the above reaction specimen (inhibition material), the supernatant taken out from the liver and specific substrate of each CYP. […] Each specimen has a concentration of 0.1, 0.5, 1.0 and 2.0 mg/ml and an amount of protein taken out from the liver is set to 500 μg/ml. Each substrate had 2.5 μM of stock solution and finally became 25 nM after adding 10 μl. […] The enzyme activity was measured by using a RF-5301 PC spectrofluoro photometer (SHIMADZU, Japan) from the supernatant (excitation at 522 nm and emission at 586 nm). […]
# [4] = system: breast cancer, leukemia, uterus cancer, stomach cancer and colon cancer cell strain; settings: cited from earlier work
# [5] = cited from earlier work
# [6] = DPPH free radical scavenging
# Method: 1.5 ml of DPPH was placed into a cuvette and 1.5 ml of antioxidant solution was added and evenly mixed. Right after mixing, the change of absorbance (523 nm) according to time was measured and the decomposition rate was calculated. Decomposition rate=(initial absorbance of DPPH−absorbance after adding each specimen according to time)/initial absorbance of DPPH×100 (Calculating formula 3)
# [7] = biological target: T2, CYP 1A2; test: MROD (methoxyresorufin dealkylase) activity in Aroclor 1254-induced rat liver supernatant
# Method: as §1, §2
molecule,measurement,setting,value
O=c1c(O)c(-c2ccc(O)c(O)c2)oc2cc(O)cc(O)c12 [quercetin],inhibition of generating nitromorpholine from morpholine,[1],~75%
same,order of inhibition of activity of purified CYP 1A2,[2],EGCG>>the functional agent>>quercetin>>powdered green tea>>catechin
same,order of inhibition of activity of CYP 1A2,[3],quercetin>>the functional agent>>catechin≈powdered green tea
same,concentration of quercetin at which propagation of cancer cell strain was inhibited,[4],10 µM
O=C(O)CCC(=O)c1cccnc1 [ketoic acid],share of ketoic acid metabolized to hydroxy acid and excreted as urine,[5]; in vivo,85%
CN1CCCC1c1cccnc1 (stereo not drawn) [nicotine],share of nicotine conversed into cotinine,[5]; in vivo,70-80%
same,share of nicotine conversed into nicotine-1-N-oxide by FMO,[5]; in vivo,4%
same,share of nicotine excreted as urine through metabolism,[5]; in vivo,80-90%
same,half period,[5]; nicotine,30 min
CN1C(=O)CC[C@H]1c1cccnc1 [cotinine],half period,[5]; cotinine,1440 min
epigallocatechin-3-gallate [EGCG],order of inhibition of activity of purified CYP 1A2,[2]; purified enzyme,EGCG>>the functional agent>>quercetin>>powdered green tea>>catechin
same,"DPPH radical scavenging effect, comparison",[6],two times higher than that of the functional agent and catechin
catechin,order of inhibition of activity of CYP 1A2,[7],quercetin>>the functional agent>>catechin≈powdered green tea
same,inhibition of generating nitromorpholine from morpholine,[1],~75%
same,order of inhibition of activity of purified CYP 1A2,[2]; purified enzyme,EGCG>>the functional agent>>quercetin>>powdered green tea>>catechin
